Numbered stars: 1 amine (or outer) side, 2 acyl side, 3 side chain; on linkers, the order of the positions; unused ones are H or OH. Bridge positions count the residues as written; N and C are the ends. Square brackets hold non-standard residues; d marks the D form. Peptide text beside a SMILES is read from it. * marks the point of attachment. DOTA = O=C(O)CN1CCN(CC(=O)O)CCN(CC(=O)*)CCN(CC(=O)O)CC1; 2Nal = N[C@@H](Cc1ccc2ccccc2c1)C(=O)O; 3Pal = N[C@@H](Cc1cccnc1)C(=O)O; 4Pal = N[C@@H](Cc1ccncc1)C(=O)O; CH2 = C([*:1])[*:2]

One may read the Kd as the concentration at which binding is half-saturated.

The target in one data set is T1, human DLL3 (Homo sapiens, UniProt Q9NYJ7).
T1 sequence (Q9NYJ7 27-618): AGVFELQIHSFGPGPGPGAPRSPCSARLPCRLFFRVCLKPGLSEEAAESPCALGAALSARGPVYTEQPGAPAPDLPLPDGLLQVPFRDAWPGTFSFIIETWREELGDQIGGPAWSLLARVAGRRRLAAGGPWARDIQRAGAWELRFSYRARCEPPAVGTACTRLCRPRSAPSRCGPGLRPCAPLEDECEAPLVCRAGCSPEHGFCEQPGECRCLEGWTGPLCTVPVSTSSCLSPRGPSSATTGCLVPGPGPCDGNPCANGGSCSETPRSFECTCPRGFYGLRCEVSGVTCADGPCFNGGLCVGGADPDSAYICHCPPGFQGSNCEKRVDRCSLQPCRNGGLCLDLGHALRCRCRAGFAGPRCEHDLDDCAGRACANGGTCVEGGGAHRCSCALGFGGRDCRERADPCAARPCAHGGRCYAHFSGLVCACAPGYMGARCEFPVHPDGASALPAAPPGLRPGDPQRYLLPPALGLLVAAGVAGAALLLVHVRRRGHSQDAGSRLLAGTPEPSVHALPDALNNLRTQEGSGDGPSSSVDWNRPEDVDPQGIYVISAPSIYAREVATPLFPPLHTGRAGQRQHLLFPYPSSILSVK
The data set is described as follows: Affinity determination by Surface Plasmon Resonance (SPR). It is filed as binding. The following applies: 25° C., biotinylated human DLL3 immobilized on streptavidin sensor chip, 1:1 binding model; read-out: SPR KD. Summed up:
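Kinetic and affinity constants were derived by fitting sensorgrams to a 1:1 binding model. Graded compound concentrations flowed at 100 μL/minute in 20 mM phosphate running buffer with 2% DMSO over streptavidin-immobilized biotinylated human DLL3, reference-subtracted.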

A further data set deals with SHP-77 cells. Briefly: Cell binding (total uptake) of [177Lu]Lu-test peptide, SHP-77 cells. It is filed as cell-based. Particulars: SHP77 cells, 1 hour at 37° C., bound fraction. As to the method:
(§1) [^177Lu]LuCl3 was received from venders in HCl solution. For every mCi of [^177Lu]LuCl3 added to the reaction vial (1.5 mL Eppendorf vial), ammonium acetate buffer (0.2 M, pH 4.9, 100 μL, containing 1% w/v ascorbic acid and 6% v/v ethanol) and peptide conjugate (1 nmol). A peptide conjugate of the present disclosure is also referred to herein as a “chelator-peptide”. The pH of the solution was determined to be approximately 5 by using pH strips. The reaction vial was incubated at 80° C., 700 RPM for 17-20 minutes. A sample from the reaction was analyzed by RP-HPLC using an Agilent Infinity II 1260 HPLC to determine reaction completion and radiochemical purity of [^177Lu]Lu-chelator-peptide. HPLC conditions: Waters XBridge BEH C18 Column, 130 Å, 3.5 um, 4.6 mm×250 mm; mobile phase: Solvent A=water (with 0.1% formic acid), solvent B=acetonitrile (with 0.1% formic acid). Gradients: 25-45% B in 10 minutes, 45-65% B in 12 minutes, 65-90% in 6 minutes at a flow rate of 0.5 mL/minute. Required amounts of the product was formulated in 1% PBSA for cell studies.
(§2) The study was conducted using SHP-77, CT26.WT, and CT26.DLL3 cells (Table 7) Adherent cell studies: The cells were cultured in appropriate culture media (20 mL) in tissue culture treated T150 flasks at 37° C. and 5% CO2. Adherent cells were detached (60-70% confluent) using 5 mL Versene at 37° C. for 3 minutes. After confirming the viability using countess and count of detached cells using Trypan blue, the cells were centrifuged at 4° C. for 5 minutes (1,000 rpm). The cell pellet obtained was washed once with PBS and resuspended in 1% PBSA to obtain the desired cell concentration (5-25 million cells/mL).
Suspension cell studies: The cells were cultured in appropriate culture media (20 mL) in tissue culture treated T150 flasks at 37° C. and 5% CO2. After confirming the viability and count of detached cells using Trypan blue, the cells were centrifuged at 4° C. for 5 minutes (1,000 rpm). The cell pellet obtained was washed once with PBS and resuspended in 1% PBSA to obtain the desired cell concentration (5-25 million cells/mL).
(§3) Cell numbers used for the assay were in the range of 5 million cells/condition −25 million cells/condition.
(§4) Total uptake: Cells were incubated with 300 μL (0.8 μCi) of the incubation buffer (containing radiolabeled peptide [^177Lu] Lu-test peptide) for 1 hour at 37° C. (Table 8). Post incubation, the cells were pelleted and washed 2 times using cold PBS+1% BSA. The supernatant and washes were combined and counted together as “unbound fraction” in a gamma counter. The cells were then resuspended in 300 μL of 1% PBS+1% BSA and counted in the gamma counter as “bound fraction”.
(§5) In these Tables, “A” represents %≤25; “B” represents 25<%≤50; “C” represents %>50.

The subject of data set [1] is CT26.DLL3 cells. The data set is described as follows: Cell binding (total uptake) of [177Lu]Lu-test peptide, CT26.DLL3 cells. It is filed as cell-based. The following applies: 1 hour at 37° C. As to the method:
as §1, §2, §3, §4, §5

In data set [2] the test system is CT26.DLL3 cells. Briefly: Internalization (out of bound fraction) of [177Lu]Lu-test peptide, CT26.DLL3 cells. It is filed as cell-based. Particulars: 1 hour at 37° C., glycine pH 2.5 wash. As for the experimental part:
as §1, §2, §3, §4
Internalization: The resuspended cells in 300 μl of 1% PBSA and counted in the gamma counter as “bound fraction” were collected in 1.5 mL Eppendorf tube and pelleted. The pelleted cells were incubated with 300 μl of 50 mM Glycine pH=2.5 for 3 minutes and then pelleted discarding the supernatant. This process was repeated one more time. The pelleted cells were washed with 300 μl of cold 1% PBSA and then resuspended in 300 μl 0.3M NaOH. This was counted in the gamma counter as “internalized fraction”.
as §5

Another data set concerns SHP-77 tumors. Briefly: Ex vivo biodistribution of radiolabeled peptides in nude mice bearing SHP-77 tumors. Particulars: [177Lu]Lu labelling, nude mice bearing SHP-77 tumors (n = 3), 24 hours post-injection. Summed up: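 Nude mice bearing SHP-77 xenografts (200-400 mm^3) or tumor-naïve mice (5-7 weeks) received an intravenous tail-vein bolus of [^177Lu]Lu-peptide and were euthanized at pre-set time points. Tissues were weighed and gamma-counted, with counts decay-corrected to injection time. Values are % IA/g per tissue from the injected activity of each mouse.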

A further data set concerns the target T2, DLL3 on SHP-77 cells (human, UniProt Q9NYJ7 27-618).
T2 construct: SHP-77 cells are human-derived, non-engineered SCLC cells
T2 sequence: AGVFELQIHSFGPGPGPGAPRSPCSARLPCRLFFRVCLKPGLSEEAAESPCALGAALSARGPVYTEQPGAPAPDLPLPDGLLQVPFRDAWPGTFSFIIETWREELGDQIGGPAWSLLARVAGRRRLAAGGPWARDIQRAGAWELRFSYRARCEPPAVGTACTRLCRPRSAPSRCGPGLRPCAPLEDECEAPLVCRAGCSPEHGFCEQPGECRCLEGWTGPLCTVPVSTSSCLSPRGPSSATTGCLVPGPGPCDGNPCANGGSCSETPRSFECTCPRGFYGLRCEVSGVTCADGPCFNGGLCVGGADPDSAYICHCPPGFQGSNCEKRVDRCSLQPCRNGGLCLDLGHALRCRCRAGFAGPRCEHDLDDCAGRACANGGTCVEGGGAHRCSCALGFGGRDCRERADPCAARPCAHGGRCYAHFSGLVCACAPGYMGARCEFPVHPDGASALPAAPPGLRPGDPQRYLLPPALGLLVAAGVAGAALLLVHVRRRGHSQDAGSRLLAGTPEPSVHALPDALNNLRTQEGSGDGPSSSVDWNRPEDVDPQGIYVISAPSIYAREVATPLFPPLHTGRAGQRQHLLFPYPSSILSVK
The data set is described as follows: 177Lu-peptide bound to SHP-77 cells, gamma counting; letter grade, key in paragraph 629. As to the method:
as §2
(§6) Total uptake: Cells were incubated with 300 μL (0.8 μCi) of the incubation buffer (containing radiolabeled peptide [¹⁷⁷Lu] Lu-test peptide) for 1 hour at 37° C. (Table 8). Post incubation, the cells were pelleted and washed 2 times using cold PBS+1% BSA. The supernatant and washes were combined and counted together as “unbound fraction” in a gamma counter. The cells were then resuspended in 300 μL of 1% PBS+1% BSA and counted in the gamma counter as “bound fraction”.

Another data set addresses T3, DLL3 on CT26.DLL3 cells (Homo sapiens (Human), UniProt Q9NYJ7 27-618).
T3 construct: CT26.DLL3 are engineered cells to express DLL3
T3 sequence: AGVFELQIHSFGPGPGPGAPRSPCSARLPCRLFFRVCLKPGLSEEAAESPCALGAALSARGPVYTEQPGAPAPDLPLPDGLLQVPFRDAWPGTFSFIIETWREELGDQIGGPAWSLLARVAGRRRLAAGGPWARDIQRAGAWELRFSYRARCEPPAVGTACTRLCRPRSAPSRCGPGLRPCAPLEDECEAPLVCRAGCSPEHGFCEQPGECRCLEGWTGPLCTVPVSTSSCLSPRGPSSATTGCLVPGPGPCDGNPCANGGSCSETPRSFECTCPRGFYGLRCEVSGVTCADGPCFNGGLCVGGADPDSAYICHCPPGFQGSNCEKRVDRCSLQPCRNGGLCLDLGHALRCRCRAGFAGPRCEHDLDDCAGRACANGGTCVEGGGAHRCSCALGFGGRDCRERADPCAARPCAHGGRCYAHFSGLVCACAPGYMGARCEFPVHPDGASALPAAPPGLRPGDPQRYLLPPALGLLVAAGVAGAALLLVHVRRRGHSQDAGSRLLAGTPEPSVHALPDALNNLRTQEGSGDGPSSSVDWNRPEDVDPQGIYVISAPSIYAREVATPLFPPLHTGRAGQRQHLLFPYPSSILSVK
The data set is described as follows: 177Lu-peptide bound to CT26.DLL3 cells, gamma counting; letter grade, key in paragraph 629. As for the experimental part: as §2, §6

Consider `CC[C@H](C)[C@H](NC(=O)[C@@H](NC(=O)[C@H](Cc1c[nH]c2ccccc12)NC(C)=O)[C@@H](C)O)C(=O)N[C@H]1CSCSC[C@@H](C(=O)N[C@@H](Cc2c[nH]c3ccccc23)C(=O)N2CCC[C@H]2C(=O)N[C@H](CCCCNC(=O)CN2CCN(CC(=O)O)CCN(CC(=O)O)CCN(CC(=O)O)CC2)C(N)=O)NC(=O)[C@H](CC(=O)O)NC(=O)[C@H](Cc2cnc[nH]2)NC(=O)[C@H](Cc2ccc3ccccc3c2)NC(=O)[C@H](CC(N)=O)NC(=O)[C@H](CC(N)=O)NC1=O` [compound 165, Ac-WTI-C(1)-NN(2Nal)HD-C(1)-WP-[D-Lys(DOTA)]-NH2] (Ac-WTICNN[2Nal]HDCWP[dK](DOTA)-NH2; linker 4-10 via CH2), for which the Kd on human DLL3 was less than 1 nM. Also, the “% Binding” value in the data set on SHP-77 cells is recorded as “A (%≤25)”.

In the case of `CC[C@H](C)[C@H](NC(=O)[C@@H](NC(=O)[C@H](Cc1c[nH]c2ccccc12)NC(C)=O)[C@@H](C)O)C(=O)N[C@H]1CSSC[C@@H](C(=O)N[C@@H](Cc2c[nH]c3ccccc23)C(=O)N2CCC[C@H]2C(=O)N[C@@H](CCCCNC(=O)CN2CCN(CC(=O)O)CCN(CC(=O)O)CCN(CC(=O)O)CC2)C(N)=O)NC(=O)[C@H](CC(=O)O)NC(=O)[C@H](Cc2cnc[nH]2)NC(=O)[C@H](Cc2ccc3ccccc3c2)NC(=O)[C@H](CC(N)=O)NC(=O)[C@H](CC(N)=O)NC1=O` [compound 166, Ac-W-T-I-C(3)-N-N-(2Nal)-H-D-C(3)-W-P-[L-Lys(DOTA)]-NH2] (Ac-WTICNN[2Nal]HDCWPK(DOTA)-NH2; disulfide 4-10), at human DLL3, the dissociation constant (Kd) was less than 1 nM. The “% Binding” value in the data set on SHP-77 cells is listed as “A (%≤25)”. For the molecule “Ac-(5Fluoro-W)-T-(CHA)-C(3)-N-N-(2Nal)-H-D-C(3)-(7Aza-W)-(trans4Fluoro-P)-[D-Lys(DOTA)]-NH2 [compound 245]”, on human DLL3, the Kd is less than 1 nM. Also, the “% Binding” value in the data set on CT26.DLL3 cells [1] is “A (%≤25)”. The “% Internalization (out of bound fraction)” value with CT26.DLL3 cells [2] is recorded as “B (25<%≤50)”. Also, in the data set with SHP-77 tumors (kidney), the “kidney uptake (% IA/g)” value is reported as “D (% IA/g > 10 in kidney)”. In the data set on SHP-77 tumors (tumor), the “tumor uptake (% IA/g)” value was “A (0 < % IA/g ≤ 5 in tumor)”. With Ac-WTICNN[2Nal]HDCWP[dK](DOTA)-NH2 (bridge 4-10; also: 177Lu chelated in DOTA, also called [177Lu]Lu-test peptide) [[177Lu]Lu-labelled Cpd No. 165], the “% Binding” value with DLL3 on SHP-77 cells was not above 25%.

Take Ac-WTICN[4Pal][2Nal]HDCWP[dK](DOTA)-NH2 (disulfide 4-10; also: 177Lu in the DOTA chelator, also called [177Lu]Lu-test peptide) [[177Lu]Lu-labelled Cpd No. 266]: the “% Binding” value with DLL3 on CT26.DLL3 cells was not above 25%. On the same count and under the same terms, then Ac-WTIC[4Pal]N[2Nal]HDCWP[dK](DOTA)-NH2 (disulfide 4-10; also: 177Lu in the DOTA chelator, also called [177Lu]Lu-test peptide) [[177Lu]Lu-labelled Cpd No. 264], with not above 25%; and Ac-WTIC[3Pal]N[2Nal]HDCWP[dK](DOTA)-NH2 (disulfide 4-10; also: 177Lu in the DOTA chelator, also called [177Lu]Lu-test peptide) [[177Lu]Lu-labelled Cpd No. 263], with not above 25%.

Source of the values: US20250011368A1, “DLL3 TARGETING PEPTIDES AND CONSTRUCTS THEREOF” (MARIANA ONCOLOGY INC., priority 2023, published 2025).
